Measured values: patent US9381208B2, “Structure and use of 5′ phosphate oligonucleotides” (Rheinische Friedrich-Wilhelms-Universität, priority 2006, dated 2016)
Oligonucleotides are written 5' to 3', each unit as a sugar letter and its base; * is a phosphorothioate linkage, no mark a phosphodiester; rarer units and linkages stand in square brackets, end groups in braces. Plain capitals give the bases only. {ppp} = triphosphate group; r = 2'-OH (RNA)

System: human primary monocytes
Test: IFN-α production in human primary monocytes transfected with RNA (ELISA)
Assay type: cell-based
Details: for IFN-α-inducing activity conferred by the 5′ 4-nucleotide sequence: adenosine-initiated in vitro transcribed RNA oligonucleotides, FIG. 13; for IFN-α induction (*100%) mean: monocytes from three donors, 36 hours after transfection, normalized to the mean induction level of all oligonucleotides (=100%); for IFN-α production in monocytes: 200 ng RNA transfected, 24 hours, ELISA

Substance | IFN-α-inducing activity conferred by the 5′ 4-nucleotide sequence | IFN-α induction (*100%) mean | IFN-α production in monocytes | IFN-α inducing activity after cleavage of the 5′ overhang by RNAse T1 (monocytes)
augaggggac acacacacac acacacacac (AUGAGGGGACACACACACACACACACACAC; RNA, 5' {ppp}, backbone not given here) [SEQ ID No. 169] | highest IFN-α-inducing activity | 1.32 *100% | – | –
aguaggggac acacacacac acacacacac (AGUAGGGGACACACACACACACACACACAC; RNA, 5' {ppp}, backbone not given here) [SEQ ID No. 158] | highest IFN-α-inducing activity | 1.22 *100% | – | –
agcuggggac acacacacac acacacacac (AGCUGGGGACACACACACACACACACACAC; RNA, 5' {ppp}, backbone not given here) [SEQ ID No. 120] | – | 0.69 *100% | – | –
5′-pppAGGGAAGCGGGCAUGCGGCCAGCCAUAGCCGAUCA-3′ [AΦ6.5-35 n] | – | – | clear superiority | –
acacggggac acacacacac acacacacac (ACACGGGGACACACACACACACACACACAC; RNA, 5' {ppp}, backbone not given here) [SEQ ID No. 135] | – | 0.95 *100% | – | –
aaagggggac acacacacac acacacacac (AAAGGGGGACACACACACACACACACACAC; RNA, 5' {ppp}, backbone not given here) [SEQ ID No. 173] | highest IFN-α-inducing activity | 1.40 *100% | – | –
Lipopolysaccharide [LPS, reference compound] | – | – | did not contribute to IFN-α production | –
aguuggggac acacacacac acacacacac (AGUUGGGGACACACACACACACACACACAC; RNA, 5' {ppp}, backbone not given here) [SEQ ID No. 168] | highest IFN-α-inducing activity | 1.32 *100% | – | –
aagaggggac acacacacac acacacacac (AAGAGGGGACACACACACACACACACACAC; RNA, 5' {ppp}, backbone not given here) [SEQ ID No. 134] | – | 0.95 *100% | – | –
auccggggac acacacacac acacacacac (AUCCGGGGACACACACACACACACACACAC; RNA, 5' {ppp}, backbone not given here) [SEQ ID No. 141] | highest IFN-α-inducing activity | 1.01 *100% | – | –
acguggggac acacacacac acacacacac (ACGUGGGGACACACACACACACACACACAC; RNA, 5' {ppp}, backbone not given here) [SEQ ID No. 125] | – | 0.77 *100% | – | –
tri-GFPds: annealed dsRNA molecule of tri-GFPs (SEQ ID NO: 341) and tri-GFPa (SEQ ID NO: 348) (sense {ppp}-rGrGrGrGrCrUrGrArCrCrCrUrGrArArGrUrUrCrArUrCrUrU; antisense {ppp}-rGrGrGrGrArUrGrArArCrUrUrCrArGrGrGrUrCrArGrCrUrU; in vitro transcribed strands annealed as dsRNA) | – | – | comparable levels of IFN-α | completely abolished the IFN-α inducing activity
acgcggggac acacacacac acacacacac (ACGCGGGGACACACACACACACACACACAC; RNA, 5' {ppp}, backbone not given here) [SEQ ID No. 147] | highest IFN-α-inducing activity | 1.08 *100% | – | –
5′-PPPGGGAGACAGGCCCCCCCCCCCCCCCCCCCCC-3′ [tri-poly C] | – | – | equally potent | –
auucggggac acacacacac acacacacac (AUUCGGGGACACACACACACACACACACAC; RNA, 5' {ppp}, backbone not given here) [SEQ ID No. 144] | highest IFN-α-inducing activity | 1.03 *100% | – | –
acauggggac acacacacac acacacacac (ACAUGGGGACACACACACACACACACACAC; RNA, 5' {ppp}, backbone not given here) [SEQ ID No. 148] | highest IFN-α-inducing activity | 1.11 *100% | – | –
5′-pppAACCUGUCCUUCAAUUACC-3′ [RNA9.2s-5A] | – | – | paralleled RNA9.2-0A | –
aaucggggac acacacacac acacacacac (AAUCGGGGACACACACACACACACACACAC; RNA, 5' {ppp}, backbone not given here) [SEQ ID No. 132] | – | 0.94 *100% | – | –
agcaggggac acacacacac acacacacac (AGCAGGGGACACACACACACACACACACAC; RNA, 5' {ppp}, backbone not given here) [SEQ ID No. 164] | highest IFN-α-inducing activity | 1.29 *100% | – | –
5′-pppGGGAGACAGGGGGGGGGGGGGGGGGGGGGGG-3′ [tri-poly G] | – | – | equally potent | –
aucaggggac acacacacac acacacacac (AUCAGGGGACACACACACACACACACACAC; RNA, 5' {ppp}, backbone not given here) [SEQ ID No. 160] | highest IFN-α-inducing activity | 1.24 *100% | – | –
acaaggggac acacacacac acacacacac (ACAAGGGGACACACACACACACACACACAC; RNA, 5' {ppp}, backbone not given here) [SEQ ID No. 142] | highest IFN-α-inducing activity | 1.01 *100% | – | –
acccggggac acacacacac acacacacac (DNA ACCCGGGGACACACACACACACACACACAC; chemistry not fully specified) [SEQ ID No. 130] | – | 0.89 *100% | – | –
aaggggggac acacacacac acacacacac (AAGGGGGGACACACACACACACACACACAC; RNA, 5' {ppp}, backbone not given here) [SEQ ID No. 149] | highest IFN-α-inducing activity | 1.11 *100% | – | –
agagggggac acacacacac acacacacac (AGAGGGGGACACACACACACACACACACAC; RNA, 5' {ppp}, backbone not given here) [SEQ ID No. 114] | – | 0.50 *100% | – | –
auagggggac acacacacac acacacacac (AUAGGGGGACACACACACACACACACACAC; RNA, 5' {ppp}, backbone not given here) [SEQ ID No. 123] | – | 0.76 *100% | – | –
agacggggac acacacacac acacacacac (AGACGGGGACACACACACACACACACACAC; RNA, 5' {ppp}, backbone not given here) [SEQ ID No. 116] | – | 0.62 *100% | – | –
auauggggac acacacacac acacacacac (AUAUGGGGACACACACACACACACACACAC; RNA, 5' {ppp}, backbone not given here) [SEQ ID No. 129] | – | 0.89 *100% | – | –
agguggggac acacacacac acacacacac (AGGUGGGGACACACACACACACACACACAC; RNA, 5' {ppp}, backbone not given here) [SEQ ID No. 155] | highest IFN-α-inducing activity | 1.18 *100% | – | –
